Results taken from patent US10682311B2, “Intranasal dexmedetomidine compositions and methods of use thereof” (BAUDAX BIO, INC., priority 2011, dated 2020).

Assay: clinical
Conditions: human, in vivo, 35 ug
Excerpt: This was a Phase 1, open-label, two period, repeated dose study in healthy subjects to investigate the safety, tolerability, and pharmacokinetics of intranasal dexmedetomidine. A total of 12 subjects (6 male and 6 female) were planned and enrolled. Healthy subjects between the ages of 18 and 50 years, inclusive, were screened for participation at one study site in the United States within 28 days before study drug administration. Medical history, physical examination, baseline laboratory testing, 12 lead electrocardiogram (ECG), pregnancy testing, vital sign measurements, and informed consent were completed during the screening visit.
During Period 1, subjects received two doses of study medication, separated by six hours. During Period 2, study participants received seven doses of study medication administered at six hour intervals. Study Periods were separated by not less than 24 hours between the last dose in Period 1 and the first dose in Period 2.
Serial blood samples were collected at defined intervals during each study period in order to evaluate the pharmacokinetic properties of intranasally administered dexmedetomidine, and its metabolite. Whole blood was collected in 6 mL evacuated collection tubes treated with K2EDTA.
Plasma samples were to be collected within ±2 minutes of the scheduled post-dose time through 60 minutes after dosing, samples collected 75 minutes to 6 hours after dosing were able to be collected within ±5 minutes, and samples collected at and beyond 12 hours after dosing were able to be collected within ±15 minutes of scheduled post-dose time. Actual times were to be recorded for all events, and any deviation outside the specified ranges were required to be clearly documented in the subject's study records.
Immediately after the collection of each sample, the collection tube was to be gently inverted and then placed in wet ice. Within 30 minutes of withdrawal, the tubes were centrifuged at about 2,000×gravity for 10-15 minutes to separate the cells from the plasma. No aids for separation were to be used. Two aliquots (≥0.5 mL each) of plasma were transferred from each sample with clean pipettes and placed in 2 polypropylene storage tubes in equal volumes. The storage tubes were labeled with the following information: protocol number, subject number, study day and relative time of sample (e.g., Period 1, Dose 1, 10 Minutes after dosing), and biologic matrix to be analyzed (e.g., plasma). Within 60 minutes of the collection time, the storage tubes were to be placed into a freezer at −20° C. or below; they remained in the freezer until shipment for analysis.
For pharmacokinetic analyses in Period 1, up to 12 blood samples were collected from each subject prior to and following administration of each study dose. These were collected at predose (Time 0) and at the following approximate times after each dose of study medication: 10, 20, 30, 45, 60, and 90 minutes and 2 and 4 hours; additional blood samples were collected at 6, 12 and 18 hours after Dose 2. In Period 2, up to 13 blood samples were collected from each subject prior to and following administration of Dose 1 and Dose 7. These were collected at predose (Time 0) and at the following approximate times after dosing with study medication: 10, 20, 30, 45, 60, and 90 minutes and 2 and 4 hours; additional blood samples were collected at 6, 12, 18 and 24 hours after Dose 7. Blood samples for Dose 2 through Dose 6 were collected at predose (Time 0) only. […]

AUC(0-t) (both, AUC0-6): 0.39 ng·h/mL
AUC(0-t) (both, AUClast): 0.38 ng·h/mL
Cmax (both, Cmax): 0.09 ng/mL
Tmax (both, Tmax): 1.26 h
accumulation (AUC for Dose 1 compared to Dose 7) (inhaled or intranasal): little evidence of accumulation
Structure (SMILES): Cc1cccc([C@H](C)c2cnc[nH]2)c1C [Dexmedetomidine, 5-[(1S)-1-(2,3-dimethylphenyl)ethyl]-1H-imidazole]
